Data reported in PubChem BioAssay (NCI).
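Results reflect a 48-hour exposure of cells in 96-well plates to compound at five concentrations. At the GI50, growth is halved. TGI marks complete inhibition of growth.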

What was measured:
Assay in all cases: inhibition of tumour cell growth, NCI panel, 48 h
A549 NSCLC = tested on: A549 NSCLC
COLO 205 colon = tested on: COLO 205 colon
HCT-116 colon = tested on: HCT-116 colon
HL-60(TB) leukemia = tested on: HL-60(TB) leukemia
K-562 leukemia = tested on: K-562 leukemia
NCI-H226 lung = tested on: NCI-H226 lung
RPMI-8226 leukemia = tested on: RPMI-8226 leukemia
SK-MEL-2 melanoma = tested on: SK-MEL-2 melanoma
UACC-257 melanoma = tested on: UACC-257 melanoma
UACC-62 melanoma = tested on: UACC-62 melanoma

| SMILES | GI50 (A549 NSCLC) [µM] | TGI (A549 NSCLC) [µM] | GI50 (COLO 205 colon) [µM] | TGI (COLO 205 colon) [µM] | GI50 (HCT-116 colon) [µM] | TGI (HCT-116 colon) [µM] | GI50 (HL-60(TB) leukemia) [µM] | TGI (HL-60(TB) leukemia) [µM] | GI50 (K-562 leukemia) [µM] | TGI (K-562 leukemia) [µM] | GI50 (NCI-H226 lung) [µM] | TGI (NCI-H226 lung) [µM] | GI50 (RPMI-8226 leukemia) [µM] | TGI (RPMI-8226 leukemia) [µM] | GI50 (SK-MEL-2 melanoma) [µM] | TGI (SK-MEL-2 melanoma) [µM] | GI50 (UACC-257 melanoma) [µM] | TGI (UACC-257 melanoma) [µM] | GI50 (UACC-62 melanoma) [µM] | TGI (UACC-62 melanoma) [µM] |
| --- | --- | --- | --- | --- | --- | --- | --- | --- | --- | --- | --- | --- | --- | --- | --- | --- | --- | --- | --- | --- |
| O=C(N[C@@H](c1ccc(Cl)c(Cl)c1)C1CNC1)c1ccc2cnccc2c1 | 0.417 | 12.5 | 0.194 | 1.29 | 0.33 | 10.4 | 0.534 | 3.89 | 3.2 | > 40.3 | 0.626 | 5.43 | 1.56 | 8.87 | 0.52 | 3.06 | 0.49 | 4.84 | 0.171 | 0.866 |
| NCCNc1c2c(c(NCCN)c3[nH]ccc13)C(=O)c1ccccc1C2=O | 0.63 | 2.53 | 0.28 | 5.8 | < 0.0261 | 0.401 | 0.132 | 0.47 | 0.118 | 1.14 | 0.198 | 0.896 | 0.278 | 1.21 | 0.785 | 2.41 | 2.63 | 7.5 | 0.0842 | 0.372 |
| CCOc1ccc(NC(=O)C(=O)CC(=O)c2c(C)n([O-])c3ccccc3[n+]2=O)cc1 | – | > 100 | – | > 100 | – | > 100 | – | > 100 | – | > 100 | – | > 100 | – | > 100 | – | > 100 | – | > 100 | – | > 100 |
| COc1cc(-c2cc(-c3cc4c([nH]c5ccccc54)c(-c4cc(OC)c(OC)c(OC)c4)n3)cc(-c3ccccc3)n2)cc(OC)c1OC | 3.4 | 80.9 | 4.11 | 21.9 | 4.02 | > 100 | 3.09 | 11.3 | 3.39 | > 100 | 7.56 | > 100 | 2.88 | 18.5 | 2.58 | 6.36 | 6.14 | 44.6 | 2.9 | 18 |
| CN(C)C(n1cc2c(c1)-c1ccc(Cl)cc1C(c1ccccc1F)=NC2)n1cc2c(c1)-c1ccc(Cl)cc1C(c1ccccc1F)=NC2 | – | > 100 | – | > 100 | – | > 100 | – | > 100 | – | > 100 | – | > 100 | – | > 100 | – | > 100 | – | > 100 | – | > 100 |
| CC(=O)OC12C=CC(=O)N1c1ccccc1C(=O)O2 (stereo not given) | – | > 100 | – | > 100 | – | > 100 | – | > 100 | – | > 100 | – | > 100 | – | > 100 | – | > 100 | – | > 100 | – | > 100 |
| N#CC(C(=O)C(=O)C(C#N)c1ccc(Br)cc1)c1ccc(Br)cc1 (stereo not given) | – | 46.5 | – | 31.4 | – | 29.5 | – | 20.6 | – | > 100 | – | 34.8 | – | > 100 | – | 27.5 | – | 25.1 | – | 7.03 |
| CC[C@H]1[C@@H]2C=C[C@@H]3[C@H]4C/C=C\C(=O)NCCC[C@@H]5NC(=O)/C(=C(O)/C=C/[C@@H]4C[C@@H]3[C@H]2C[C@H]1C)C5=O | 2 | 3.99 | 3.24 | 8.44 | 1.48 | 3.03 | 1.92 | 3.99 | 1.96 | 4.24 | 0.738 | 2.56 | 1.77 | 4.23 | 2.54 | 6.01 | 1.71 | 3.49 | 1.66 | 3.17 |
